Results from publication PMC9221443, “Peptidomimetics Based on C-Terminus of Blm10 Stimulate Human 20S Proteasome Activity and Promote Degradation of Proteins” (Biomolecules, 2022).

How the values were obtained:
[1] = target: 20S proteasome (h20S); test: Microscale thermophoresis (MST) protein-proteasome interaction; format: binding, human; conditions: NT-647-labeled protein titrated with h20S 0.06-1965 nM, 22 °C, 20 mM Tris-HCl pH 7.2, three independent experiments
Experimental: Enolase, α-synuclein and their oxidized forms were labeled using Monolith Protein Labeling Kit RED-NHS 2nd Generation Amine Reactive, NT-647 (Nanotemper, München, Germany), according to the manufacturer instructions. The labeling process was carried out in 50 mM HEPES buffer, pH 7.4, in the protein:NT-647 1:2 ratio. The incubation time was 60 min for enolase and 30 min for α-synuclein, at 21 °C. After labeling, the excess of the fluorescent reagent was removed using the columns provided by the manufacturer and 20 mM Tris-HCl buffer, pH 7.2, containing 200 mM NaCl and 10% glycerol. The obtained labeled proteins were concentrated on Amicon 3K spin-columns (Merck, Darmstadt, Germany). Protein concentrations were determined by measuring absorbance at 280 nm, using UV/Vis spectrophotometer (DU®730 Beckman Coulter).
Direct interactions between the fluorescently labeled, native and oxidized, proteins and the 20S proteasome were examined using microscale thermophoresis (NanoTemper Monolith NT.115). The labeled protein concentration was kept constant at 250 nM for native and oxidized α-synuclein and 125 nM and 25 nM for native and oxidized enolase, respectively. […] The EC50 values were calculated based on results obtained in three independent experiments.

[2] = system: ChT-L peptidase of proteasome in HEK293T cell extracts; test: Proteasome ChT-L activity in HEK293T cell lysates; format: biochemical, human; conditions: 1 µM; HEK293T lysate 20 µg/mL protein; 100 µM Suc-LLVY-AMC
Experimental: Human embryonic kidney cells (HEK293T) were maintained in Dulbecco’s Modified Eagle Medium (DMEM) supplemented with 10% Fetal Bovine Serum and penicillin/streptomycin (100 units/mL/100 µg/mL), at 37 °C with 5% CO2. Cells were grown in a T-75 flask to ~80% confluency and then were lysed using Reporter Lysis Buffer (Promega, Madison, WI, USA) and the manufacturer’s protocol. Protein content was measured using BCA assay. Stock solutions of the fluorogenic substrate (Suc-LLVY-AMC) and the tested peptidomimetics were prepared in dimethyl sulfoxide (DMSO). Potential activators were tested in the following concentrations: 1, 5, 10, 25 and 50 μM. The final DMSO concentration was kept constant at 2%. The activity assays were performed analogously to those described in the proteasome activity assays subsection, in the 96-well plate format in 50 mM Tris-HCl buffer, pH 8.0, using a 100 μL reaction volume. The final concentration of the fluorogenic substrate and cell lysate proteins were: 100 μM and 20 µg/mL, respectively. As a negative control, 1 μM bortezomib solution was used.

How did the “EC50 of binding to 20S proteasome (MST, Hill fit)” value [1] turn out when “enolase: native human enolase 2, 434-residue thermolabile protein, model substrate” was run?
Its value is “did not bind”.

How did the “degradation of Suc-LLVY-AMC substrate in cell extracts (negative control)” value [2] turn out when `CC(C)C[C@H](NC(=O)[C@H](Cc1ccccc1)NC(=O)c1cnccn1)B(O)O` [bortezomib] was run?
The value was “completely blocked”.

α-synuclein was tested. Which EC50 ([1]; read-out: EC50 of binding to 20S proteasome (MST, Hill fit)) did it give?
Its EC50 is 0.0323 ± 0.0013 µM.
